In US9084770B2, “Modulation of insulin like growth factor I receptor expression in cancer” (Antisense Therapeutics, Ltd., priority 2008, dated 2015):

Tests used:
PC3 cells [1] = experiment: PC3 cell viability, crystal violet assay; assay type: cell-based, human; conditions: three days after treatment
Description: (§1) Established methods were used to test the activity of IGF-IR antisense oligonucleotide on LNCaP and PC-3 cell growth (crystal violet assay) and apoptosis (FACS). Dose- and sequence-specific suppression of IGF-IR mRNA and protein expression in ATL1101-treated LNCaP and PC3 PC cell lines in vitro were observed by QT-PCR and western blotting. Effects of the IGF-IR antisense oligonucleotide on various putative targets, including IGF-IR and downstream targets were evaluated using western blotting.
(§2) Cells were transfected with indicated concentrations of ATL1101, control oligodeoxynucleotides or oligofectamine as in FIGS. 1A(i)-1A(ii). Three days after treatment, cell viability was determined by crystal violet assay. Viable cell density was normalized to that of cells treated with oligofectamine. Points, means of triplicate analysis; bars, SE. *, p<0.05 differs from control oligodeoxynucleotide treatment group. **, p<0.01 differs from control oligodeoxynucleotide treatment group by Student's t test.

PC3 cells [2] = experiment: PC3 cell cycle and apoptosis, flow cytometry with propidium iodide; assay type: cell-based, human; conditions: PC3, FBS condition, 200 nM
Description: as §1
(§3) The Effect of IGF-IR silencing with IGF-IR antisense oligonucleotide (ATL1101) on LNCaP and PC3 cell apoptosis and cell cycle is shown in FIGS. 4A(i)-(ii), 4B, 4C(i)-(ii), and Table 2. Cells were transfected with indicated concentrations of ATL1101, control oligodeoxynucleotide or oligofectamine as in FIGS. 1A(i)-1B(ii). Two days after treatment, cell cycle analysis was determined by flow cytometry using propidium iodide staining. […] In FIGS. 4C(i)-(ii), LNCaP (FIG. 4C (i)) or PC-3 (FIG. 4C (ii)) cells were transfected with indicated concentration of ATL1101 or control oligodeoxynucleotide (ISIS 306064) for two days. Cells were then cultured in FBS media for one day and in serum-free media for one day. Whole cell lysates (30 μg) were subjected to SDS-PAGE and immunoblotted to assess Cyclin D1, Cyclin E, p-RB, total Rb, and p27 protein levels. Oligo, oligofectamine treated cells only.

[3] = system: IGF-IRβ, p-AKT, p-ERK1/2, cleaved PARP; experiment: Intracellular signaling in LNCaP and PC3 cells, immunoblot; assay type: cell-based, human; conditions: 100 nM
Description: The suppression of intracellular signaling in IGF-IR antisense oligonucleotide-treated LNCaP (FIG. 3A) and PC3 (FIG. 3B) in vitro is shown in FIGS. 3A-3B. LNCaP or PC3 cells were transfected with 100 nM ATL1101 or control oligodeoxynucleotide (ISIS 306064) for two days. Cells were then cultured in FBS media for one day and in serum-free media for one day. Whole cell lysates (30 μg) were subjected to SDS-PAGE and immunoblotted to assess IGF-IRβ, p-AKT, total AKT, p-ERK1/2, total ERK1/2, cleaved PARP, and vinculin protein levels. Oligo, oligofectamine treated cells only.

[4] = system: insulin receptor IR-A, IR-B, IR-β protein; experiment: Insulin receptor transcripts and protein in PC3 Ptx-R cells; assay type: cell-based, human
Excerpt: (§4) The PC3 Ptx-R cells retain sensitivity to ATL1101-induced IGF-IR down regulation at the mRNA and protein level as shown in FIGS. 11A-C. […] ATL1101 and the control oligodeoxynucleotide ISIS 306064 had no effect on either of the alternative spliced isoform transcripts of the insulin receptor, IR-A, IR-B or IR-β protein or vinculin protein levels.

LNCaP cells [5] = experiment: LNCaP cell viability, crystal violet assay; assay type: cell-based, human; conditions: three days after treatment
Description: as §1, §2

IGF-IR mRNA [6] = experiment: IGF-IR mRNA expression in transfected LNCaP and PC-3 cells, quantitative RT-PCR; assay type: cell-based, human; conditions: LNCaP and PC-3 cells, maximal doses tested
Description: as §1
FIGS. 1A(i)-1A(ii) show the sequence-specific and dose-dependent suppression of IGF-IR mRNA expression levels by ATL1101 in LNCaP (FIG. 1A (i)) and PC-3 (FIG. 1A (ii)) cells. […] One day after treatment, total RNA was extracted, and IGF-IR mRNA expression was analyzed by quantitative RT-PCR. IGF-IR mRNA levels were normalized to levels of GAPDH mRNA and expressed here as mean±SE. ***, p<0.001 differ from control (oligofectamine only) by Student's t test. “Control” cells were treated with oligofectamine only. In LNCaP cells, IGF-IR expression was >70% suppressed by 10 nM ATL1101 and >90% at 200 nM ATL1101. In PC3 cells, IGF-IR expression was suppressed ˜40% at 10 nM ATL1101, >50% at 50 nM ATL1101 and ˜80% at 200 nM. Control oligodeoxynucleotide (ISIS 306064) did suppress IGF-IR mRNA expression but by less than 25% at maximal doses tested

PC3 tumors = experiment: PC-3 xenograft with Paclitaxel, mean tumor volume; assay type: in vivo, mice; conditions: 15 mg/kg i.p. oligonucleotide plus Paclitaxel
Excerpt: In vivo treatments in a PC-3 xenograft model were done substantially as described by Zellweger et al., 2001. PC3 cells (2×10^6 cells) were xenografted by subcutaneous injection into recipient 6-8 week-old athymic nude (nu/nu) mice. When tumors reached 200 mm^3, mice were randomly assigned to one of two arms for treatment with 2′-MOE-modified IGF-IR antisense oligonucleotide (ATL1101) plus Paclitaxel, or mismatch control oligodeoxynucleotide ISIS 306064 plus Paclitaxel. Each experimental group consisted of 10 mice. After randomization, 15 mg/kg of ATL1101 antisense oligonucleotide or mismatch control oligonucleotide were injected intraperitoneal (i.p.) into each mouse once daily for the first 5 days and 3 times a week (every other day) thereafter for 7 weeks. On days 7, 9, 11, and on days 21, 23, and 25, 0.5 mg of polymeric micellar Paclitaxel was administered once daily by i.v. injection. Mean Tumor volume was measured once weekly for 8 weeks and calculated by the formula length×width×depth×0.5236.
In PC3 mice, after 5 weeks of treatment, mean tumor size in mice treated with Paclitaxel and mismatch control oligodeoxynucleotide was 326+/−40.9 mm^3 compared with 175+/−20.1 mm^3 in mice treated with Paclitaxel and ATL1101, or 53.7% of control (p<0.01). After 8 weeks of treatment, mean tumor size in mice treated with Paclitaxel and mismatch control oligodeoxynucleotide was 1417+/−222 mm^3 compared with 507+/−79.3 mm^3 in mice treated with Paclitaxel and ATL1101, or 35.8% of control (p<0.01).

IGF-IRβ subunit protein = IGF-IRβ subunit protein in PC3 Ptx-R cells; assay type: cell-based, human; conditions: 10 to 200 nM, compared to oligofectamine transfection reagent
Excerpt: as §4

LNCaP cells [7] = experiment: LNCaP cell cycle and apoptosis, flow cytometry with propidium iodide; assay type: cell-based, human; conditions: 100 nM
Description: as §1, §3

Ptx-R PC3 cells = experiment: Ptx-R PC3 viable cells after transfection with or without Paclitaxel; assay type: cell-based, human; conditions: 100 nM Paclitaxel and 25 nM oligonucleotide
Description: The number of viable PC3 and PtxR PC3 cells was determined 72 hours after the second transfection.
[…] The number of viable cells remaining was determined 72 hours after the second transfection treatment. ATL1101 treatment enhances the Ptx-R sensitivity to Paclitaxel under standard culture conditions. For example, there was approximately 45% cell viability with 100 nM Paclitaxel and 25 nM control oligodeoxynucleotide whereas, only 25 nM Paclitaxel is needed in the presence of 25 nM ATL1101 to produce the same reduction in cell viability.

IGF-IR mRNA [8] = experiment: IGF-IR mRNA in PC3 Ptx-R cells; assay type: cell-based, human; conditions: 10 to 200 nM, compared to oligofectamine transfection reagent
Excerpt: as §4

ISIS 306064: 8 nucleotide mismatch control oligonucleotide; Negative Control ODN (CCAATGATAACAAACGCGGA; chemistry not given here) [reference compound]
cytotoxic effect on cell viability (PC3 cells [1]): dose-dependent cytotoxic effect
% of total cells, G0/G1 (PC3 cells [2]): 58.5%
% of total cells, G2/M (PC3 cells [2]): 18.2%
% of total cells, S (PC3 cells [2]): 13.7%
% of total cells, Sub G0/G1 (PC3 cells [2]): 9.6%
subG0/G1 + G0/G1:S + G2/M (PC3 cells [2]): 2.1
IGF-IR expression, down-stream kinase signaling and induction of PARP cleavage versus oligofectamine-treated cells [3]: indistinguishable
insulin receptor IR-A, IR-B transcripts or IR-β protein levels [4]: no effect
cytotoxic effect on cell viability (LNCaP cells [5]): dose-dependent cytotoxic effect
suppression of IGF-IR mRNA expression (IGF-IR mRNA [6]): less than 25%
mean tumor size (PC3 tumors; after 5 weeks of treatment): 326+/−40.9 mm^3
mean tumor size (PC3 tumors; after 8 weeks of treatment): 1417+/−222 mm^3
IGF-IRβ subunit protein levels (IGF-IRβ subunit protein): no effect
% of total cells, G0/G1 (LNCaP cells [7]; CSS condition): 70.1%
% of total cells, G2/M (LNCaP cells [7]; CSS condition): 4.4%
% of total cells, S (LNCaP cells [7]; CSS condition): 3.8%
% of total cells, Sub G0/G1 (LNCaP cells [7]; CSS condition): 21.7%
subG0/G1 + G0/G1:S + G2/M (LNCaP cells [7]; CSS condition): 11.2
% of total cells, G0/G1 (LNCaP cells [7]; FBS condition): 65.4%
% of total cells, G2/M (LNCaP cells [7]; FBS condition): 12.6%
% of total cells, S (LNCaP cells [7]; FBS condition): 11.2%
subG0/G1 + G0/G1:S + G2/M (LNCaP cells [7]; FBS condition): 3.2
% of total cells, Sub G0/G1 (LNCaP cells [7]; FBS condition, two days after treatment): 10.8%
cell viability (Ptx-R PC3 cells): approximately 45%
IGF-IR mRNA levels (IGF-IR mRNA [8]): no effect
